Results reported in patent US8546404B2, “Compounds that are ERK inhibitors” (Merck Sharp & Dohme, priority 2005, dated 2013).
“And” between values parts separate entries of the source, which are not always exact repeats. Equal entries are not always repeated. Where two headings read alike, the source gives them in different places.

Tests used:
[1] = Cassette Accelerating Rapid Rat Screen (CARRS), AUC during the first 6 hours; type: in vivo, Male Sprague-Dawley rats; conditions: male, Sprague-Dawley, plasma, 10 mg/kg, PO, AUC during the first 6 hours (AUC6hr)
Method: The AUC (Area Under the Concentration-Time Curve During the First 6 Hours (AUC6hr) in Table 30 Below was Determined Using the Protocol of Cassette Accelerating Rapid Rat Screen (CARRS)
Animal Dosing and Sample Collection
Male Sprague-Dawley rats (Charles River, Co.) were pre-cannulated (femoral artery) in order to facilitate precise blood sampling times, and to reduce the stress on the animals caused by serial bleedings. Following an overnight fast, two rats were dosed orally with one compound at a dose of 10 mg/kg in a 5-mL/kg dose volume. Blood was collected into heparin-containing tubes serially from each animal at 0.5, 1, 2, 3, 4 and 6 h post-dosing and centrifuged to generate plasma. Approximately 100 μL of plasma were collected at the individual time points. The plasma samples were stored at −20° C. until analysis.
Plasma Sample and Standard Curve Preparation
A set of 12 rat plasma samples was generated for each NCE (i.e. 6 timepoints and n=2 rats). These 12 samples were pooled across the two rats at each timepoint to provide 6 pooled samples (one sample per time point) for each NCE. The pooled samples were assayed as cassettes of six (36 samples total) to provide data on the six compounds. The 50-μL aliquots of the 36 plasma samples were placed into individual wells of a 96-well plate. An additional compound (often a structural analog of the test compounds) was selected as the internal standard. A mini-calibration curve was prepared (three points plus a zero) for each compound assayed. Drug-free rat plasma was measured into 1-mL aliquots and each aliquot was spiked with known concentrations of the compounds to generate standards of the desired concentrations. The concentrations of the standards were chosen to bracket the expected concentration of the pooled samples based on historical data from previous studies on other compounds. For this work, the standards were set to contain concentrations of 25, 250 and 2500 ng NCE/mL plasma. The plasma standards were precipitated in duplicate along with the samples. Protein precipitation occurred after addition of 150 μL of acetonitrile containing the internal standard at a concentration of 1 ng/mL into each sample well using the Tomtec Quadra 96 system. The precipitated samples and standards were vortexed and centrifuged in the 96-well plate. Approximately 50-100 μL of the supernatant were removed and placed into a fresh 96-well plate using the Tomtec Quadra 96 system. A volume of 5-10 μL of the supernatant was used for analysis by HPLC-MS/MS. The mini-standard curve was run in duplicate, once before and once after the samples. Thus, a total of 14 study samples plus standards were analyzed per compound. In addition, solvent blanks were injected before and after each set of 14 and after the highest calibration standard for each compound; therefore, a total of 103 injections were made into each HPLC system for each set of six compounds. Multiple solvent blank injections could be made from a single well. Twelve solvent blank wells were designated in each 96-well plate. Thus, one batch (cassette) of six NCEs was prepared and assayed using one 96-well plate format.
All the compounds were analyzed using selected reaction monitoring (SRM) methods with LC/MS/MS instruments. Once the method development had been completed, the assay was quickly set up using a standard injection sequence template for the CARRS assay.

[2] = molecular target: fully phosphorylated, active Mouse ERK2 protein (Mus musculus (Mouse), UniProt P63085); assay: Active ERK2 Assay (IMAP format); type: biochemical
fully phosphorylated, active Mouse ERK2 protein, sequence (P63085 whole entry): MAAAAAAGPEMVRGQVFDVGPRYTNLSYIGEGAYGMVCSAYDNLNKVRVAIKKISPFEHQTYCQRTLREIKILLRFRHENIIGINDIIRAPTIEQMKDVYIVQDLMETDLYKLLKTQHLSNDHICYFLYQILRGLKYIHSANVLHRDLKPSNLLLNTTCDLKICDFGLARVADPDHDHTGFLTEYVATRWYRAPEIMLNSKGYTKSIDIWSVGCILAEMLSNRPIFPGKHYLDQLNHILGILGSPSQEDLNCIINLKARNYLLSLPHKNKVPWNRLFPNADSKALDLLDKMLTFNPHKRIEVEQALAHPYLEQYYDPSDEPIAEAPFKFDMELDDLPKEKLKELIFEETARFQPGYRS
Method: Activated ERK2 activity was also determined in the IMAP assay format using the procedure outlined above. […] Reactions proceeded for 30 minutes before termination by addition of 60 μl IMAP detection beads in binding buffer. Plates were read as above after 30 minute binding equilibration.

Structure (SMILES) | IC50 ([2]; read-out: AERK2 IC50) | further results
CO[C@@]1(C(=O)Nc2ccc3[nH]nc(-c4ccnc(C5CC5)c4)c3c2)CCN(CC(=O)N2CC=C(c3ccc(-c4ncccn4)cc3)CC2)C1 [Example 459] | 2.5 nM | AUC [1]: 1.2 µM·h
CO[C@@]1(C(=O)Nc2ccc3[nH]nc(-c4ccc(N(C)C)cc4)c3c2)CCN(CC(=O)N2CCC(c3ccc(-c4ncccn4)cc3)CC2)C1 [Example 793] | 0.16 to 18 nM | 
COCC1(C(=O)Nc2ccc3[nH]nc(-c4ccncc4)c3c2)CCN(CC(=O)N2CCN(c3ccc(-c4ncc(F)cn4)cc3)CC2)C1 (stereo not shown) [Example 302] | 0.16 to 18 nM | 
CO[C@@]1(C(=O)Nc2ccc3[nH]nc(-c4ccc(F)c(F)c4)c3c2)CCN(CC(=O)N2CCC(c3ccc(-c4ncccn4)cc3)CC2)C1 [Example 792] | 0.16 to 18 nM | 
CNC(=O)c1n[nH]c2ccc(NC(=O)[C@@H]3CCN(CC(=O)N4CCC(c5ccc(-c6ncccn6)cc5)CC4)C3)cc12 [Example 176] | 0.16 to 18 nM | 
O=C(CN1CCC(CN2CCOCC2)(C(=O)Nc2ccc3[nH]nc(-c4ccncc4)c3c2)C1)N1CCN(c2nccs2)CC1 (stereo not shown) [Example 286] | 0.16 to 18 nM | 
C=CCC1(C(=O)Nc2ccc3[nH]nc(-c4ccncc4)c3c2)CCN(CC(=O)N2C[C@@H]3C[C@H]2CN3c2ccc(-c3ncc(F)cn3)cc2)C1 (stereo partly shown) [Example 271] | 0.16 to 18 nM | 
Cc1cnc(-c2ccc(N3CCN(C(=O)CN4CCC(C(=O)Nc5ccc6[nH]nc(-c7ccc(F)cc7)c6c5)C4)[C@H](C)C3)cc2)nc1 (stereo partly shown) [Example 120] | 0.16 to 18 nM | 
CNC(=O)c1n[nH]c2ccc(NC(=O)[C@@H]3CCN(CC(=O)N4C[C@@H]5C[C@H]4CN5c4ccc(-c5ncccn5)cc4)C3)cc12 [Example 152] | 0.16 to 18 nM | 
O=C(Nc1ccc2[nH]nc(-c3ccncc3)c2c1)[C@@H]1CCN(CC(=O)N2CCc3ccccc3C2)C1 [Example 332] | 0.16 to 18 nM | 
CO[C@@]1(C(=O)Nc2ccc3[nH]nc(-c4ccnc(C5CC5)c4)c3c2)CCN(CC(=O)N2CC=C(c3ncc(-c4ncccn4)s3)CC2)C1 [Example 777] | 0.16 to 18 nM | 
CC(C)(C)OC(=O)N1CCC(O)(c2nccs2)CC1 [Example 132, 4-Hydroxy-4-thiazol-2-yl-piperidine-1-carboxylic acid tert-butyl ester] | 0.16 to 18 nM | 
CON(C(=O)[C@@H]1CCN(CC(=O)N2CC=C(c3ccc(-c4ncccn4)cc3)CC2)C1)c1ccc2[nH]nc(-c3ccncc3)c2c1 [Example 611] | 0.16 to 18 nM | 
COCC1(C(=O)Nc2ccc3[nH]nc(-c4ccncc4)c3c2)CCN(CC(=O)N2C[C@@H]3C[C@H]2CN3c2ccc(-c3ncc(F)cn3)cc2)C1 (stereo partly shown) [Example 303] | 0.16 to 18 nM | 
CNC(=O)c1n[nH]c2ccc(NC(=O)[C@@H]3CCN(CC(=O)N4C[C@@H]5C[C@H]4CN5c4ccc(-c5ncc(C)cn5)cc4)C3)cc12 [Example 154] | 0.16 to 18 nM | 
COCC1(C(=O)Nc2ccc3[nH]nc(-c4ccncc4)c3c2)CCN(CC(=O)N2CC=C(c3nccs3)CC2)C1 (stereo not shown) [Example 306] | 0.16 to 18 nM | 
CO[C@@]1(C(=O)Nc2ccc3[nH]nc(-c4ccc5c(c4)OCO5)c3c2)CCN(CC(=O)N2CCN(c3ccc(-c4ncccn4)cn3)C[C@H]2C)C1 [Example 799] | 0.16 to 18 nM | 
COCC1(C(=O)Nc2ccc3[nH]nc(-c4ccncc4)c3c2)CCN(CC(=O)N2CCN(c3ccc(-c4ncccn4)cn3)C[C@H]2C)C1 (stereo partly shown) [Example 304] | 0.16 to 18 nM | 
CO[C@@]1(C(=O)Nc2ccc3[nH]nc(-c4ccc(OCCO)cc4)c3c2)CCN(CC(=O)N2CC=C(c3ccc(-c4ncccn4)cc3)CC2)C1 [Example 822] | 0.16 to 18 nM | 
CO[C@@]1(C(=O)Nc2ccc3[nH]nc(-c4cc[n+]([O-])c(C)c4)c3c2)CCN(CC(=O)N2CC=C(c3ccc(-c4ncccn4)cc3)CC2)C1 [Example 666] | 0.16 to 18 nM | 

Structure (SMILES) | IC50 ([2]; read-out: AERK2 IC50) | further results
COCC1(C(=O)Nc2ccc3[nH]nc(-c4ccc(F)cc4)c3c2)CCN(CC(=O)N2CCN(c3ccc(-c4ncccn4)cc3)CC2)C1 (stereo not shown) [Example 125, 3-methoxymethyl-1-{2-oxo-2-[4-(4-pyrimidin-2-yl-phenyl)-piperazin-1-yl]-ethyl}-pyrrolidine-3-carboxylic acid [3-(4-fluoro-phenyl)-1H-indazol-5-yl]-amide] | 0.16 to 18 nM | 
CO[C@@]1(C(=O)Nc2ccc3[nH]nc(-c4ccnc(C5CC5)c4)c3c2)CCN(CC(=O)N2CCC(C)(c3ccc(-c4ncccn4)cc3)CC2)C1 [Example 680] | 0.16 to 18 nM | 
O=C(Nc1ccc2[nH]nc(-c3ccc(F)cc3)c2c1)[C@@H]1CCN(CC(=O)N2CCN(c3ccc(-c4ncccn4)cc3)CC2)C1 (stereo in doubt) [Example 1, 1-{2-Oxo-2-[4-(4-pyrimidin-2-yl-phenyl)-piperazin-1-yl]-ethyl}-pyrrolidine-3-carboxylic acid [3-(4-fluoro-phenyl)-1H-indazol-5-yl]-amide] | 0.16 to 18 nM | 
C=CCC1(C(=O)Nc2ccc3[nH]nc(-c4ccncc4)c3c2)CCN(CC(=O)N2CCN(c3ccc(-c4ncccn4)cc3)CC2)C1 (stereo not shown) [Example 289] | 0.16 to 18 nM | 
CS[C@@]1(C(=O)Nc2ccc3[nH]nc(-c4ccc(F)cc4)c3c2)CCN(CC(=O)N2CCN(c3ccc(-c4ncccn4)cn3)C[C@H]2C)C1 [Example 641] | 0.16 to 18 nM | 
O=C(Nc1ccc2[nH]nc(-c3ccncc3)c2c1)[C@@H]1CCN(CC(=O)N2C[C@@H]3C[C@H]2CN3c2ccc(-c3ncc(F)cn3)cc2)C1 [Example 183] | 0.16 to 18 nM and 0.16 to 1.5 nM and 0.16 nM | 
C=CCC1(C(=O)Nc2ccc3[nH]nc(-c4ccncc4)c3c2)CCN(CC(=O)N2CCN(c3ccc(-c4ncc(F)cn4)cc3)CC2)C1 (stereo not shown) [Example 294] | 0.16 to 18 nM | 
N#Cc1cccc(-c2n[nH]c3ccc(NC(=O)[C@@H]4CCN(CC(=O)N5CCN(c6ccc(-c7ncccn7)cc6)CC5)C4)cc23)c1 [Example 2, 1-{2-Oxo-2-[4-(4-pyrimidin-2-yl-phenyl)-piperazin-1-yl]-ethyl}-pyrrolidine-3-carboxylic acid[3-(3-cyano-phenyl)-1H-indazol-5-yl]-amide] | 0.16 to 18 nM | 
CO[C@@]1(C(=O)Nc2ccc3[nH]nc(-c4cc[n+]([O-])c(C5CC5)c4)c3c2)CCN(CC(=O)N2CCC(c3ccc(-c4ncccn4)cc3)CC2)C1 [Example 669] | 0.16 to 18 nM | 
CO[C@@]1(C(=O)Nc2ccc3[nH]nc(-c4ccc(NCCO)cc4)c3c2)CCN(CC(=O)N2CC=C(c3ccc(-c4ncccn4)cc3)CC2)C1 [Example 758] | 0.16 to 18 nM | 
COCCOc1ccc(-c2n[nH]c3ccc(NC(=O)[C@]4(OC)CCN(CC(=O)N5CC=C(c6ncc(-c7ncccn7)cc6F)CC5)C4)cc23)cc1 [Example 738] | 0.16 to 18 nM | 
CS[C@@]1(C(=O)Nc2ccc3[nH]nc(-c4ccc(F)cc4)c3c2)CCN(CC(=O)N2CCN(c3ccc(-c4ncccn4)cc3)CC2)C1 [Example 647] | 0.16 to 18 nM | 
O=C(Nc1ccc2[nH]nc(-c3ccncc3)c2c1)[C@@H]1CCN(CC(=O)N2CCN(c3ccc(-c4ncccn4)cc3)CC2)C1 [Example 6] |  | IC50 ([2]; AERK2 IC50): 0.8 nM
COC[C@@]1(C(=O)Nc2ccc3[nH]nc(-c4ccnc(C5CC5)c4)c3c2)CCN(CC(=O)N2CC=C(c3ccc(-c4ncccn4)cc3)CC2)C1 [Example 336, 3-Methoxymethyl-1-{2-[4-(4-pyrimidin-2-yl-phenyl)-3,6-dihydro-2H-pyridin-1-yl]-acetyl}-pyrrolidine-3-carboxylic acid [3-(2-cyclopropyl-pyridin-4-yl)-1H-indazol-5-yl]-amide] |  | AUC [1]: 7.22 µM·h
CO[C@@]1(C(=O)Nc2ccc3[nH]nc(-c4ccc(F)cc4)c3c2)CCN(CC(=O)N2CC=C(c3ccc(-c4ncc(N)cn4)cc3)CC2)C1 [Example 823] | 0.16 to 18 nM | 
CO[C@@]1(C(=O)Nc2ccc3[nH]nc(-c4ccc(F)cc4)c3c2)CCN(CC(=O)N2CCN(c3cc(F)c(-c4ncccn4)cc3F)CC2)C1 [Example 663] | 0.16 to 18 nM | 
CSC1(C(=O)Nc2ccc3[nH]nc(-c4ccc(F)cc4)c3c2)CCN(CC(=O)N2CCN(c3ccc(-c4ncccn4)cc3)CC2)C1 (stereo not shown) [Example 338] | 0.16 to 18 nM | 
CO[C@@]1(C(=O)Nc2ccc3[nH]nc(-c4ccnc(C)c4)c3c2)CCN(CC(=O)N2CCC(c3ccc(-c4ncccn4)cc3)CC2)C1 [Example 789] | 0.16 to 18 nM | 
O=C(CN1CCC(CF)(C(=O)Nc2ccc3[nH]nc(-c4ccncc4)c3c2)C1)N1C[C@@H]2C[C@H]1CN2c1ccc(-c2ncccn2)cc1 (stereo partly shown) [Example 269] | 0.16 to 18 nM | 
